We go through 16 molecules from patent US5721266A, “Substituted imidazolinyl-imidazolines as antagonists of SH-2 binding and therapeutic uses thereof” (Warner-Lambert Company, priority 1994, dated 1998).

The target in assay [1] is T1, [35S]abl SH-2 / activated EGF receptor (Homo sapiens, UniProt P00519).
T1 construct: containing the SH-2 domain of abl; made in house; host or cells: abl SH-2 fusion: bacteria, labelled in vivo with 35S; EGFR partner: EGF-treated 3T3 cells transfected with human EGFR, immunoprecipitated
T1 sequence (P00519 127-217 limits assumed): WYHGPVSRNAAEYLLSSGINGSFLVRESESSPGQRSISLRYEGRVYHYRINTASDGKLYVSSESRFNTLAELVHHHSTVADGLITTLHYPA
Briefly: in vitro inhibition of [35S]abl SH-2 interactions with activated EGF receptor. It is filed as binding. On the procedure:
The ability of some of the preferred compounds of the present invention to inhibit SH-2 interactions with activated tyrosine kinase receptors was measured using an in vitro biological assay. The test assesses the ability of a test compound to inhibit the interaction of [^35 S]abl SH-2 with activated EGF receptors, or with other receptor tyrosine kinases.
A bacterial glutathione-S-transferase fusion protein, containing the SH-2 domain of abl, is labelled in vivo with ^35 S. Phosphorylated EGFR is purified from EGF-treated 3T3 cells transfected with the human EGFR by precipitation with anti-EGFR antisera. The resulting immune complex is bound to protein A--Sepharose beads. Binding of the ^35 S labelled abl fusion protein (77 nM) to the purified EGFR beads complex (approximately 1 μg of receptor/assay) is allowed to proceed to equilibrium (30 minutes) in a total volume of 0.4 mL, in the presence of the test compounds. Bound ^35 S fusion protein is separated from free by filtration through 0.65 μ DUPP filters, and radioactivity is determined by scintillation counting.
Results of the binding study are expressed in Table 1 as IC50 values, i.e., the concentration of test compound required to inhibit [^35 S]abl SH-2 interactions with the activated EGF receptor.

In assay [2] the test system is Rat Aortic Smooth Muscle Cells (RASMC). Briefly: [3H]Thymidine Incorporation Assay, smooth muscle cell proliferation stimulated by PDGF. It is filed as cell-based. To be noted: 22 hours. The method, then:
(§1) SH-2 tyrosine kinase inhibitors may block the signal transduction pathways for platelet derived growth factor ("PDGF") and fibroblast growth factor ("FGF"), which have been implicated in the control of smooth muscle cell proliferation. The ability of some of the preferred compounds of the present invention to inhibit smooth muscle cell (SMC) proliferation stimulated by PDGF or serum was measured using the biological assay discussed below.
(§2) Rat Aortic Smooth Muscle Cells (RASMC) were plated into a 24-well plate (30,000 cells/well) in DMEM with 10% Fetal Bovine Serum (FBS). After 4 days cells reached confluence and were made quiescent by incubation in DMEM/F12 medium (Gibco) containing 0.2% FBS for another 2 days. Incubation with the growth factors, PDGF-BB and bFGF as well as FBS, and test compound was carried out in 0.5 mL/well serum-substituted medium (DMEM/F12+1% CPSR-2 from Sigma) for 22 hours. After 18 hours, 0.25 μCi/well [^3 H]thymidine was added. Four hours later the incubation was stopped by removing the radioactive media, washing the cells twice with 1 mL cold phosphate-buffered saline, and then washing 2 times with cold 5% trichloroacetic acid. The acid-insoluble fraction was lysed in 0.75 mL 0.25N NaOH and the radioactivity determined by liquid scintillation counting.
(§3) Smooth muscle cells were isolated from the thoracic aorta of rats (RASMC) and explanted according to the method of Ross, et al., Cell Biology 50:172-186 (1971). Cells were grown in Dulbecco's modified Eagle's medium (DMEM, Gibco) containing 10% fetal calf serum (FBS, Hyclone, Logan, Utah), 1% glutamine (Gibco), and 1% penicillin/streptomycin (Gibco). Cells were identified as smooth muscle cells by their "hill and valley" growth pattern and by fluorescent staining with a monoclonal antibody specific for SMC α-actin (Sigma). RASMC were used between passages 5 and 20 for all experiments. Test compounds were prepared in dimethylsulfoxide (DMSO) in order to achieve consistency in the vehicle and to ensure compound solubility. Appropriate DMSO controls were simultaneously evaluated with the test compounds.
(§4) The results of the cellular proliferation assay are expressed in Table 2 as IC50 values, i.e., the concentration of test compound required to inhibit [^3 H]thymidine incorporation into smooth muscle cells.
For orientation: Dividing cells build labelled thymidine or BrdU into new DNA.

Assay [3] has the same test system. Briefly: [3H]Thymidine Incorporation Assay, smooth muscle cell proliferation stimulated by serum. The class given is cell-based. To be noted: 22 hours. On the procedure: as §1, §2, §3, §4
Another assay deals with MOLT-4. Briefly: inhibition of growth of tumor cells, MOLT-4. To be noted: human acute lymphoblastic leukemia, no bcr-abl. The class given is cell-based.
Another assay deals with MDA-468. Briefly: inhibition of growth of tumor cells, MDA-468. The class given is cell-based. The conditions noted are these: estrogen independent breast adenocarcinoma, overexpresses EGF receptor.
A further assay deals with NIH 2.2. The assay is described as follows: inhibition of cell growth, NIH 2.2. To be noted: mouse fibroblast, no EGF receptor. It is filed as cell-based.
The subject of a further assay is KG-1A cell line. Briefly: proliferation of KG-1A cell line (FIG. 3). The class given is cell-based, human. The conditions noted are these: FIG. 3, wide range of concentrations. On the procedure: [The procedure below names another cell line; the source lists this cell line under the same test.] (§5) In one screen, K562 human erythroleukemic cells were seeded at 6×10^4 cells/mL in RPMI 1640 medium containing 10% fetal bovine serum. These cells score positively for the Philadelphia chromosome, and are known to be transformed by the bcr-abl oncogene. At the time of seeding, test compound, or vehicle (DMSO), were added. Cells were counted 4 days after seeding using a hemocytometer.
(§6) In this example, an experiment was conducted to determine the inhibition of the growth of tumor cells from the K562 cell line upon exposure to Test Compound A specified in Example 3. The screen was conducted as described in Example 3.

The test system of a further assay is NIH EGF-R. Briefly: inhibition of cell growth, NIH EGF-R. It is filed as cell-based. To be noted: mouse fibroblast, high expression of EGF receptor.
For assay [4], the system named is K562 cell line. Briefly: proliferation of K562 cell line (FIG. 3). The class given is cell-based, human. The conditions noted are these: FIG. 3, wide range of concentrations. On the procedure:
as §5, §6

The subject of the next assay is K562. The assay is described as follows: inhibition of growth of tumor cells, K562. The class given is cell-based. To be noted: 96 h, human chronic myelogenous leukemia, expresses p210 bcr-abl, 4 days. On the procedure:
as §5
The results of this experiment for a representative compound of the present invention appears in Table 3. Test Compound A is N,N'-decamethylenebis[2-amino-1-(2-imidazolin-2-yl)-2-imidazoline, dihydroiodide. The inhibition of growth of tumor cells is expressed as IC50 values; i.e., the concentration of test compound required to inhibit growth of the tumor cells by 50%.

Another assay concerns MCF-7. Briefly: inhibition of growth of tumor cells, MCF-7. To be noted: Homo sapiens, MCF7, estrogen dependent breast adenocarcinoma, 3000 EGF receptors/cell, some erbB2. It is filed as cell-based.
For a further assay, the system named is SWISS 3T3. Briefly: inhibition of cell growth, SWISS 3T3. It is filed as cell-based. The conditions noted are these: mouse fibroblast.
Another assay has as its system KG-1A. Briefly: inhibition of growth of tumor cells, KG-1A. To be noted: human acute myelogenous leukemia, no bcr-abl. The class given is cell-based.
In another assay the test system is L1210. The assay is described as follows: inhibition of growth of tumor cells, L1210. It is filed as cell-based. To be noted: mouse lymphocytic leukemia.
For the next assay, the system named is MDA-231. The assay is described as follows: inhibition of growth of tumor cells, MDA-231. The class given is cell-based. The conditions noted are these: Homo sapiens, MDA-MB-231, breast adenocarcinoma, moderate EGFR and erbB2.
Assay [5] relates to K562 cell line. The assay is described as follows: viability of the K562 cell line (FIGS. 1 and 2). It is filed as cell-based, human. The method, then: as §5, §6
Another assay has as its system A431. The assay is described as follows: inhibition of growth of tumor cells, A431. It is filed as cell-based. To be noted: A-431, human epidermoid carcinoma, overexpresses EGF receptor.
The test system of the next assay is HCT-8. The assay is described as follows: inhibition of growth of tumor cells, HCT-8. It is filed as cell-based. To be noted: human colon carcinoma, 18,000 EGF receptors/cell.
Setting [6] is: [35S]abl SH-2 binding to activated EGF receptor, values in μM, read-out: IC50.
Setting [7] is: [35S]abl SH-2 binding to activated EGF receptor, values in nM, read-out: IC50.

Read-outs that look alike come from different tables or passages of the source.

By IC50 is commonly meant the concentration at which inhibition is half-maximal. `C(CCNC1=NCCN1C1=NCCN1)CNC1=NCCN1C1=NCCN1`: the IC50 in assay [1] (setting [6]) stood at 27 µM.
In the case of `C(CCNC1=NCCN1C1=NCCN1)CCNC1=NCCN1C1=NCCN1`, the IC50 was 74 µM in [2], above 100 µM in assay [3] and 259 µM in [1] (setting [6]).
For the molecule `C(CCCNC1=NCCN1C1=NCCN1)CCNC1=NCCN1C1=NCCN1`, the IC50 in assay [1] (setting [7]) was 0.1 µM.
As to `C(CCCNC1=NCCN1C1=NCCN1)CCCNC1=NCCN1C1=NCCN1`, in assay [1] (setting [6]), the IC50 was 38 µM.
`C(CCCCNC1=NCCN1C1=NCCN1)CCCNC1=NCCN1C1=NCCN1`: the IC50 in [2] is 40 µM; in assay [3] it was 62 µM; in assay [1] (setting [6]), 33 µM.
`C(CCCCNC1=NCCN1C1=NCCN1)CCCCNC1=NCCN1C1=NCCN1` showed an IC50 in assay [1] of 1.3 µM.
Turning to `C(CCCCCNC1=NCCN1C1=NCCN1)CCCCCNC1=NCCN1C1=NCCN1`, the IC50 in assay [1] (setting [7]) came to 0.6 µM.
Regarding `C(CCCCCCNC1=NCCN1C1=NCCN1)CCCCCNC1=NCCN1C1=NCCN1`, the IC50 in assay [1] is 1.2 µM.
As for `C(CN=C1NCCN1C1=NCCN1)CN1CCN(CCCN=C2NCCN2C2=NCCN2)CC1` [2-(3-{4-[3-(4,5,4',5'-Tetrahydro-3H,1'H-[1,2']biimidazolyl-2-ylideneamino)-propyl]-piperazin-1-yl}-propylimino)-2,3,4,5,4',5'-hexahydro-1'H-[1,2']biimidazolyl], in assay [1] (setting [6]), the IC50 stood at 10 µM.
`CCCCCCCCCCCCCCCCCNC1=NCCN1C1=NCCN1` [2-(Heptadecylamino)-1-(2-imidazolin-2-yl)-2-imidazoline, monohydroiodide]: the IC50 in [2] was below 1 µM; in [3] it was below 1 µM; in assay [1] (setting [6]) it was 1.32 µM.
Consider `CCCCCCCCCCCCCN=C1NCCN1C1=NCCN1` [(4,5,4',5'-Tetrahydro-3H,1'H-[1,2']biimidazolyl-2-ylidene)-tridecyl-amine], for which, in assay [1] (setting [6]), the IC50 was determined as 50 µM.
On to `C(CCCCCNC1=NCCN1C1=NCCN1)CCCCNC1=NCCN1C1=NCCN1` [Compound A], for which the IC50 with MOLT-4 was 2.1 µM; in the assay on MDA-468, 0.9 µM; in assay [2], 2.8 µM; in the assay on NIH 2.2 it was above 25 µM; in the assay on NIH EGF-R it was above 25 µM; in the assay with K562, 0.6 µM. The IC50 in the assay on MCF-7 was 7.8 µM; in the assay on SWISS 3T3 it was above 50 µM; in the assay with KG-1A, 100 µM; in assay [3], 5 µM; with L1210 it was 1 µM; in assay [1] (setting [7]), 0.05 µM. Also, the IC50 in the assay with MDA-231 came to 14 µM; in the assay on A431, 4.4 µM; in the assay on HCT-8, 6.6 µM. For the same molecule, the “growth rate of the KG-1A cell line” value with KG-1A cell line is listed as “only slightly decreased”. Also, the “growth rate of the K562 cell line” value in the assay with K562 cell line [4] was “substantially decreased”. Besides, the “viability of the K562 cell line” value in the assay on K562 cell line [5] (FIG. 1, increased concentrations) was “steadily decline”. Further, in the assay on K562 cell line [5] (FIG. 2, 3 μM versus 0.3 μM, compared against a control), the “viability of the K562 cell line over time” value is reported as “substantially greater effect at decreasing the viability”.
In the case of `CCCCCCCNC1=NCCN1C1=NCCN1` [drawing 7, 2-(Heptylamino)-1-(2-imidazolin-2-yl)-2-imidazoline, monohydroiodide], in [1] (setting [6]), the IC50 fell in the range of 10 to 100 µM.
As to `C1CCCCCC(NC2=NCCN2C2=NCCN2)CCCCC1` [drawing 11, 2-Cyclododecylamino-1-(2-imidazolin-2-yl)-2-imidazoline, monohydroiodide], in [1] (setting [6]), the IC50 was above 100 µM.
For the molecule `CCCCCCCNC1=NCCN1C1=NCCN1` [drawing 21, 2-(Heptylamino)-1-(2-imidazolin-2-yl)-2-imidazoline, monohydroiodide], the IC50 amounted to 3 µM in [2] and 6.4 µM in assay [3].
As for `C1CCCCCC(NC2=NCCN2C2=NCCN2)CCCCC1` [drawing 25, 2-Cyclododecylamino-1-(2-imidazolin-2-yl)-2-imidazoline, monohydroiodide], the IC50 in assay [2] is below 1 µM; in assay [3], 1.1 µM.
